Results from US5858994A, “Carbohydrate conjugates as inhibitors of cell adhesion” (priority 1994, dated 1999).
Like-named read-outs stand apart in the source and are kept apart here.

What was measured:
selectin receptors [1] = conditions: compared with sialyl-Lewis X; cited from earlier work
[2] = hydrolysis in aqueous solution; format: physicochemical; conditions: elimination of maleic acid, C45 H78 N4 O24 formed
selectin receptors [3] = assay: binding to selectin receptors, statements in words
P-Selectin = target: T1, P-Selectin (Homo sapiens, UniProt P16109); assay: Inhibition of HL60 cell adhesion to soluble, recombinant P-selectin (P-selectin-IgG1 fusion protein); format: cell-based
T1 sequence (P16109 42-771): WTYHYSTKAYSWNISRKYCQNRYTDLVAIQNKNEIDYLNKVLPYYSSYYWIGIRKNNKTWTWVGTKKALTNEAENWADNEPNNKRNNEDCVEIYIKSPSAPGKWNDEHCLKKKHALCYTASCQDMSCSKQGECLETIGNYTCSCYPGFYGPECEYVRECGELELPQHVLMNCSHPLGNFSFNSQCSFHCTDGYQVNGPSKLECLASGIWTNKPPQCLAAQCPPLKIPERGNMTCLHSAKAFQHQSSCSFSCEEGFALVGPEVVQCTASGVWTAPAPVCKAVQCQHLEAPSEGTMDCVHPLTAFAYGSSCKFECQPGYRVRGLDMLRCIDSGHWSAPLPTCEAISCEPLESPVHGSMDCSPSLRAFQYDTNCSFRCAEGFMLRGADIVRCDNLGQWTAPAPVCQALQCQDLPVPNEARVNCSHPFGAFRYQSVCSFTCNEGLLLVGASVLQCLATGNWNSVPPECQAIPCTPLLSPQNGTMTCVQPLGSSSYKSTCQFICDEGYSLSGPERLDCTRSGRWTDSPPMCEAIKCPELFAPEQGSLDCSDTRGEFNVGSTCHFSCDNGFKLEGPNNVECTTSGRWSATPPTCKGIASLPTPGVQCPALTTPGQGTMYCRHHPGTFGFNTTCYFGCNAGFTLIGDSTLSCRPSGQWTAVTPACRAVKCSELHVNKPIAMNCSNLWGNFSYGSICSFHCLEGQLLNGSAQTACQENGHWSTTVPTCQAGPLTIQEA
Source text: (§1) Carrying out these assays to measure the inhibitory activity of the compounds according to the invention on cell adhesion of promyelocytic cells by means of selecting is described in detail in European Published Application EP 0 601 417.
(§2) In order to test the efficacy of the carbohydrate conjugates on the interaction between the E- and P-selectins (former nomenclature ELAM-1 or GMP-140) with their ligands, an assay is used which in each case is specific only for one of these interactions. The ligands are supplied in their natural form as surface structures on promyelocytic HL60 cells. Since HL60 cells contain ligands and adhesion molecules of very different specificity, the desired specificity of the assay can only be produced by means of the binding component. The binding components used were genetically prepared soluble fusion proteins from the in each case extracytoplasmatic domains of E- or P-selectin and the constant region of a human immunoglobulin of the IgG1 subclass.
Preparation of P-selectin-IgG1
For preparation of the soluble P-selectin-IgG1 fusion protein, the genetic construct "ICD62Rg" published by Aruffo et al., 1991 is used. The further procedure corresponds to the preparation of L-selectin-IgG1 presented under A1.
(§3) 1. 96-well microtiter test plates (Nunc Maxisorb) are incubated at room temperature for 2 hours with 100 μl of a goat anti-human IgG antibody (Sigma) diluted (1+100) in 50 mM Tris pH 9.5. After removing the antibody solution washing is carried out once with PBS.
(§4) 2. 150 μl of the blocking buffer are left in the wells at room temperature for 1 hour. The composition of the blocking buffer is: 0.1% gelatin, 1% BSA, 5% calf serum, 0.2 mM PMSF, 0.02% sodium azide. After removing the blocking buffer washing is carried out once with PBS.
(§5) 3. 100 μl each of cell culture supernatant of appropriately transfected and expressing COS cells are pipetted into the wells. Incubation is carried out at room temperature for 2 hours. After removing the cell culture supernatant washing is carried out once with PBS.
(§6) 4. 20 μl of binding buffer are added to the wells. The binding buffer has the composition: 50 mM HEPES, pH 7.5; 100 mM NaCl; 1 mg/ml BSA; 2 mM MgCl2; 1 mM CaCl2; 3 mM MnCl2; 0.02% sodium azide; 0.2 mM PMSF. 5 μl of the test substance are pipetted into this, mixed by swirling the plate and incubated at room temperature for 10 minutes.
(§7) 5. 50 ml of an HL60 cell culture containing 200,000 cells/ml are centrifuged at 350 g for 4 minutes. The pellet is resuspended in 10 ml of RPMI 1640 and the cells are centrifuged again. For labeling the cells, 50 μg of BCECF-AM (Molecular Probes) are dissolved in 5 μl of anhydrous DMSO; 1.5 ml of RPMI 1640 are then added to the BCECF-AM/DMSO solution. The cells are resuspended using this solution and incubated at 37° C. for 30 minutes. After centrifugation at 350 g for 2 minutes, the labeled cell pellet is resuspended in 11 ml of binding buffer and the resuspended cells are distributed into the microtiter plate wells in 100 μl aliquots. The plate is allowed to stand at room temperature for 10 minutes in order to allow the cells to sediment on the bottom of the test plate. In the course of this, the cells have the opportunity to adhere to the coated plastic.
(§8) 6. To stop the test, the microtiter plate is immersed completely in the stop buffer (25 mM tris, pH 7.5; 125 mM NaCl; 0.1% BSA; 2 mM MgCl2; 1 mM CaCl2; 3 mM MnCl2; 0.02% sodium azide) at an angle of 45°. The stop buffer is removed from the wells by inversion and the procedure is repeated a further two times.
7. Measurement of the BCECF-AM-labeled cells firmly adhering to the wells is carried out in a cytofluorimeter (Millipore) at a sensitivity setting of 4, an excitation wavelength of 485/220 nm and an emission wavelength of 530/250 nm.

E-Selectin = target: T2, E-Selectin (Homo sapiens, UniProt P16581); assay: Inhibition of HL60 cell adhesion to soluble, recombinant E-selectin (E-selectin-IgG1 fusion protein); format: cell-based
T2 sequence (P16581 22-556): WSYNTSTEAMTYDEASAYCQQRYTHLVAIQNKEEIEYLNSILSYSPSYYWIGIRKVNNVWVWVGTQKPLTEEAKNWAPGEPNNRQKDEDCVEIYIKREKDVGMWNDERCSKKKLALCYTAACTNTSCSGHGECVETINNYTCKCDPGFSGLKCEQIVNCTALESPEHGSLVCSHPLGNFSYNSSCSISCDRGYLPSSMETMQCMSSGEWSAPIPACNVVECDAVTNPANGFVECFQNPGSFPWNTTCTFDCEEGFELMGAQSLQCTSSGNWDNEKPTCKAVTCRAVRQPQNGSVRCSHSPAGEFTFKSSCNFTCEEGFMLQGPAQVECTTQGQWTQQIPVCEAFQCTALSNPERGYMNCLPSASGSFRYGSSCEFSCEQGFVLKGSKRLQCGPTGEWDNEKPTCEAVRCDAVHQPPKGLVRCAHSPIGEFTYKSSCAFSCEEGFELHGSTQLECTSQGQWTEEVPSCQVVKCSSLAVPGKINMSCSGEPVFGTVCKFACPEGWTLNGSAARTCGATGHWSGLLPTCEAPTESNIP
Source text: as §1, §2
Preparation of L-selectin-IgG1
For the preparation of soluble L-selectin-IgG1 fusion protein, the genetic construct "ELAM-Rg" published by Walz et al., 1990 was used.
For expression, the plasmid DNA was transfected in COS-7 cells (ATCC) by means of DEAE-dextran (Molecular Biology Methods: see Ausubel, F. M., Brent, R., Kingston, R. E., Moore, D. D., Seidman, J. G., Struhl, K. and Smith, J. A. 1990. Current Protocols in Molecular Biology, John Wiley, New York). Seven days after transfection, the culture supernatant is recovered, freed from cells and cell fragments by centrifugation and transferred to 25 mM HEPES pH 7.0, 0.3 mM PMSF, 0.02% sodium azide and stored at +4° C.
as §3, §4, §5, §6, §7, §8

[4] = test system: myocardial reperfusion injuries; conditions: animal experiments; cited from earlier work
[5] = test system: P-selectin-dependent lung injuries; conditions: animal experiments; cited from earlier work
[6] = read-out: IC50 P-Selectin; inhibition of HL60 cell adhesion to soluble, recombinant adhesion molecules
[7] = read-out: IC50 E-Selectin; inhibition of HL60 cell adhesion to soluble, recombinant adhesion molecules

Question: Which “binding to selectin receptors relative to the X type” value (selectin receptors [1]) does the source give for `CC(=O)N[C@@H]1[C@@H](O[C@@H]2O[C@H](CO)[C@H](O)[C@H](O[C@]3(C(=O)O)C[C@H](O)[C@@H](NC(C)=O)[C@H]([C@H](O)[C@H](O)CO)O3)[C@H]2O)[C@H](O[C@@H]2O[C@@H](C)[C@@H](O)[C@@H](O)[C@@H]2O)[C@@H](CO)O[C@H]1O` [sialyl-Lewis A] here?
Answer: comparable affinity

Question: For `CC(=O)N[C@H]1[C@H](OCCCCCCNC(=O)C2CCC(CNC(=O)/C=C\C(=O)O)CC2)O[C@H](CO)[C@@H](O[C@@H]2O[C@H](CO)[C@H](O)[C@H](O[C@]3(C(=O)O)C[C@H](O)[C@@H](NC(C)=O)[C@H]([C@H](O)[C@H](O)CO)O3)[C@H]2O)[C@@H]1O[C@@H]1O[C@@H](C)[C@@H](O)[C@@H](O)[C@@H]1O` (some centres unmarked), which “hydrolysis in aqueous solution” value [2] is on record?
Answer: slowly hydrolyzes further in aqueous solution

Question: Which “binding of the peptide on its own to selectins” value (selectin receptors [3]) does the source give for “Arg-Gly-Asp-Ala (RGDA; printed: Arg-Gly-Asp-Ala)” here?
Answer: does not bind

Question: Which results are given for `CC(=O)N[C@H]1[C@H](OCCCCCCNC(=O)CCCCCNC(=O)CCC(CCC(=O)NCCCCCC(=O)NCCCCCCO[C@@H]2O[C@H](CO)[C@@H](O[C@@H]3O[C@H](CO)[C@H](O)[C@H](O[C@]4(C(=O)O)C[C@H](O)[C@@H](NC(C)=O)[C@H]([C@H](O)[C@H](O)CO)O4)[C@H]3O)[C@H](O[C@@H]3O[C@@H](C)[C@@H](O)[C@@H](O)[C@@H]3O)[C@H]2NC(C)=O)(CCC(=O)NCCCCCC(=O)NCCCCCCO[C@@H]2O[C@H](CO)[C@@H](O[C@@H]3O[C@H](CO)[C@H](O)[C@H](O[C@]4(C(=O)O)C[C@H](O)[C@@H](NC(C)=O)[C@H]([C@H](O)[C@H](O)CO)O4)[C@H]3O)[C@H](O[C@@H]3O[C@@H](C)[C@@H](O)[C@@H](O)[C@@H]3O)[C@H]2NC(C)=O)[N+](=O)[O-])O[C@H](CO)[C@@H](O[C@@H]2O[C@H](CO)[C@H](O)[C@H](O[C@]3(C(=O)O)C[C@H](O)[C@@H](NC(C)=O)[C@H]([C@H](O)[C@H](O)CO)O3)[C@H]2O)[C@@H]1O[C@@H]1O[C@@H](C)[C@@H](O)[C@@H](O)[C@@H]1O` [II-3]?
Answer: IC50 (P-Selectin; [6]): > 1000 µM; IC50 (E-Selectin; [7]): 400 µM

Question: What does the source list for `CC(=O)N[C@@H]1[C@@H](O[C@@H]2O[C@@H](C)[C@@H](O)[C@@H](O)[C@@H]2O)[C@H](O[C@@H]2O[C@H](CO)[C@H](O)[C@H](O[C@]3(C(=O)O)C[C@H](O)[C@@H](NC(C)=O)[C@H]([C@H](O)[C@H](O)CO)O3)[C@H]2O)[C@@H](CO)O[C@H]1NC(=O)CCC(CCC(=O)N[C@@H]1O[C@H](CO)[C@@H](O[C@@H]2O[C@H](CO)[C@H](O)[C@H](O[C@]3(C(=O)O)C[C@H](O)[C@@H](NC(C)=O)[C@H]([C@H](O)[C@H](O)CO)O3)[C@H]2O)[C@H](O[C@@H]2O[C@@H](C)[C@@H](O)[C@@H](O)[C@@H]2O)[C@H]1NC(C)=O)(CCC(=O)N[C@@H]1O[C@H](CO)[C@@H](O[C@@H]2O[C@H](CO)[C@H](O)[C@H](O[C@]3(C(=O)O)C[C@H](O)[C@@H](NC(C)=O)[C@H]([C@H](O)[C@H](O)CO)O3)[C@H]2O)[C@H](O[C@@H]2O[C@@H](C)[C@@H](O)[C@@H](O)[C@@H]2O)[C@H]1NC(C)=O)[N+](=O)[O-]` [II-1, tris{2-[N-(5-acetamido-3,5-dideoxy-D-glycero-D-galacto-2-nonulopyranosylate)-(2→3)-(β-D-galactopyranosyl)-(1→4)-[(α-L-fucopyranosyl)-(1→3)]-2-acetamido-1,2-dideoxy-β-D-glucopyranose]amidoethyl}nitro-methane]?
Answer: IC50 (P-Selectin; [6]): > 800 µM; IC50 (E-Selectin; [7]): 380 µM

Question: Which “use in myocardial reperfusion injuries” value [4] does the source give for `CC(=O)N[C@@H]1[C@@H](O[C@@H]2O[C@@H](C)[C@@H](O)[C@@H](O)[C@@H]2O)[C@H](O[C@@H]2O[C@H](CO)[C@H](O)[C@H](O[C@]3(C(=O)O)C[C@H](O)[C@@H](NC(C)=O)[C@H]([C@H](O)[C@H](O)CO)O3)[C@H]2O)[C@@H](CO)O[C@H]1O` [SLeX] here?
Answer: successfully used

Question: What about the “use in P-selectin-dependent lung injuries” value [5] of the same compound?
Answer: successfully used

Question: Which IC50 (P-Selectin; inhibition of HL60 cell adhesion to soluble, recombinant adhesion molecules; read-out: IC50 P-Selectin) does the source give for `CSCC[C@H](NC=O)C(=O)N[C@@H](CC(C)C)C(=O)N[C@@H](Cc1ccccc1)C(=O)NCCCCCCO[C@@H]1O[C@H](CO)[C@@H](O[C@@H]2O[C@H](CO)[C@H](O)[C@H](O[C@]3(C(=O)O)C[C@H](O)[C@@H](NC(C)=O)[C@H]([C@H](O)[C@H](O)CO)O3)[C@H]2O)[C@H](O[C@@H]2O[C@@H](C)[C@@H](O)[C@@H](O)[C@@H]2O)[C@H]1NC(C)=O` [Compound I-12] here?
Answer: > 800 µM

Question: And the IC50 (E-Selectin; inhibition of HL60 cell adhesion to soluble, recombinant adhesion molecules; read-out: IC50 E-Selectin)?
Answer: > 800 µM
